Measurements published in PMC9346113, “Therapeutic impact of BET inhibitor BI 894999 treatment: backtranslation from the clinic” (British Journal of Cancer, 2022).

Tests used:
HEXIM1 = test: Pharmacometrics (PK/PD) simulation; details: Supplement Fig. 6
Experimental: Pharmacometrics simulation for platelet counts (top) and plasma concentration (bottom) as a function of four different dosing regimens of BI 894999. Solid line of 10nM indicated the estimated plasma concentration needed to stimulate a maximum 2-fold change from baseline for HEXIM1.

[1] = system: 10326 xenograft (BRD3-NUT); test: 10326 NC xenograft model; type: in vivo; details: 2 mg/kg BI 894999
Excerpt: Mice were group-housed (8–10 mice per cage) under pathogen-free and controlled environmental conditions (21 ± 1.5 C temperature, 55 ± 10% humidity) in an AAALAC accredited facility and handled according to the institutional, governmental and European Union guidelines (Austrian Animal Protection Laws, GV-SOLAS and FELASA guidelines). Animal studies were approved by the internal ethics committee and the local government committee. Mice were 6- to 8-week-old female CIEA NOG purchased from Taconic, Denmark (NOD.Cg-Prkdc^scid Il2rg^tm1Sug/JicTac). 5 × 10^6 NC tumour cells were injected subcutaneously into the right flank of the mice (1 site per mouse). Mice were randomly distributed between the treatment and the vehicle control when tumours were well established and had reached volumes of 100–150 mm^3. Compounds were suspended in 0.5% Natrosol and administered once daily intra-gastral by gavage needle. Tumour diameters were measured three times a week with a calliper. […] Within each subtopic the p-values of the efficacy parameters were adjusted for multiple comparisons according to Bonferroni–Holm. The p-values of the tolerability parameter remained unadjusted in order not to overlook a possible adverse effect. The level of significance was fixed at α = 5%. An adjusted p-value of less than 0.05 was considered to show a statistically significant difference between the groups. The statistical evaluation was prepared using the software Graph Pad Prism.

[2] = Plasma pharmacokinetics in patients (NCT02516553); type: in vivo
Experimental: Schedule B (NCT02516553): daily oral treatment from Day 1 to Day 14 at 2.5 mg/day followed by a week-off in 3-week cycles. Schedule C (NCT02516553): one week-on, one week-off treatment, repeated every two weeks in 4-week cycles with, at each treatment week, a loading dose (6 mg) on Day 1 followed by a maintenance dose (3 mg per day) on the following 6 days.

BRD4-BD1 = BRD4-BD1 (Homo sapiens, UniProt O60885); test: BRD4 AlphaLISA assay, BRD4-BD1; type: binding; details: displacement of acetyl-histone H4 peptide (Lys5, 8, 12, 16)
Excerpt: This bead-based proximity assay is based on the competitive displacement of a histone peptide (acetyl-histone H4/Lys5, 8, 12, 16) from the human bromodomain [22].

[3] = system: NC lines (Ty-82) versus AML cell lines (MV-4-11); test: Incucyte caspase-3/7 apoptosis / cell death analysis; type: cell-based, human; details: in contrast to AML cell lines, Supplementary Fig. S3
Experimental: Live-cell imaging was performed with the Incucyte® S3 Live-Cell Analysis System as described previously for Incucyte® Zoom.
Incucyte analysis. Ty-82 cells (NC) or MV-4-11 (AML) cells were treated with BI 894999 at the concentrations indicated and analyzed over time with the IncuCyte™Caspase-3/7 Apoptosis Assay Reagent (Essenbioscience Cat No 4440). Cell confluence (left) and green fluorescence as a measure of caspase 3/7 activation (right) were monitored for up to 7 days with images taken every 3 hours.

[4] = PK analysis in mouse plasma; type: in vivo; details: CIEA NOG (NOD.Cg-Prkdc^scid Il2rg^tm1Sug/JicTac), po, mice, 2 mg/kg p.o.
Excerpt: PK analysis in mouse plasma. Oral treatment at the indicated doses. Sampling at the indicated timepoints.

BRD3-NUT = system: T1, BRD3-NUT; test: Immunofluorescence staining of NUT megadomains, 10326; type: cell-based, human; details: 10326 cells; 30 minutes treatment
T1 construct: endogenous in cells; host or cells: 10326 NUT carcinoma cells, in culture (A11) and as subcutaneous xenograft tumours in NOG mice (A26)
Experimental: Cells were seeded on four-well chamber slides (Merck Millipore, #PEZGS0416). After treatment, cells were fixed with 4% PFA (16% Solution, Thermo Fischer #28908 Paraformaldehyde, diluted 1:4 in PBS), permeabilised with 0,1% TX-100 (Sigma #93443, diluted in PBS). After blocking in blocking buffer (10% normal goat serum, Sigma #G9023–10ml, diluted in blocking solution: 2% BSA/PBS, Sigma #A7284–50ml, diluted 1:15 in PBS), the first antibody mAB rabbit anti-NUT 1:1000 (clone C52B1, Cell Signaling #3625) in blocking buffer was added, followed by incubation with the 2nd antibody goat anti-rabbit Alexa*488 1:1000 (Thermo Fisher, #A-11008) in blocking buffer in the dark. Cells were mounted with ProLong Gold Antifade Mountant with DAPI (Thermo Fisher, #P36931) and analysed using a Laser scanning microscope (LSM700).
[…] Upper row: antibody against NUT, lower row: DAPI.

Ki67 = test: IHC of 10326 xenograft tumours, Ki67; type: in vivo, mice; details: day 21, BI 894999 monotherapy 2 mg/kg
Experimental: Immunohistochemistry was performed on formalin-fixed, paraffin-embedded tumour tissue using antibodies against human Ki67(Cell Signaling #9027, 1:400 dilution), anti-human mitochondria (Abcam ab92824, 1:1000 dilution) and against endogenous NUT protein (Cell Signaling #3625, 1:50 dilution) used to detect NUT fusion proteins. Digital images of whole tissue sections were acquired using a Leica SCN400 histology scanner (Leica Microsystems). Ki67-positive index was evaluated using Halo Software V. 3.2 (Indica lab). Regions of interest (ROIs) within the tissue sections were first identified using Halo Software via machine learning technology across pathological samples and tissue control, within these ROIs, nuclei were detected and classified as positive or negative based on IHC staining thresholds.
Quantification of Ki67 staining in NC 10326 tumor sections after treatment with BI 894999, CCS1477, or the combination thereof.

NC cell lines = test: Cell proliferation assays, all four NC lines (summary); type: cell-based, human
Experimental: The NUT Carcinoma cell line Ty-82 was purchased from JCRB Japan No. 1330 and cultivated in RPMI 1640 supplemented with 10% fetal calf serum (FCS). The NC cell lines 10–15, 14169 and 10326 were in-licensed from Christopher French, Brigham & Womens Hospital, Boston, and were cultivated in DMEM supplemented with glutamax and 10% FCS.
Viability assays were performed on 96-well flat-bottom microtiter plates and incubated with Alamar Blue solution (Invitrogen, Carlsbad, US-CA). The effects of drug combinations were analysed using the Bliss Independence Model.

[5] = GI50, depending on the NC cell line

CNc1nc(-c2nc3ccc(N4CCN(C)CC4)cc3n2Cc2ccccc2)cn2c(C)nnc12 [BI 894999]
estimated plasma concentration needed to stimulate a maximum 2-fold change from baseline for HEXIM1 (HEXIM1): 10 nM
TGI [1]: 99%
Cmax ([2]; Schedule C, 6 mg loading/3 mg maintenance, Day 1, 19 patients, read-out: maximal plasma concentration (mean Cmax)): ~20 nM
Cmax ([2]; human, plasma, oral, 2.5 mg, Schedule B, 2.5 mg daily, Day 1, 55 patients, read-out: maximum plasma concentration (mean Cmax)): 5 nM
Cmax ([2]; human, plasma, oral, 6 mg, Schedule C, 6 mg loading/3 mg maintenance, Day 1, 19 patients, read-out: maximal plasma concentration (mean Cmax)): 19 nM
IC50 (BRD4-BD1): 5 ± 3 nM
fold higher compound concentrations required to undergo cell death [3]: > 100 fold
Cmax [4]: 10 nM
concentration at which BRD3-NUT detaches from chromatin (BRD3-NUT): 3 to 10 nM
cell proliferation as assessed by Ki67 levels (Ki67): reduced cell proliferation
fold more potent than JQ1 and GSK525762 (NC cell lines; [5]): 40–60 fold
more potent than the dual BET/p300 inhibitor NEO2734 (NC cell lines; [5]): 10–20
GI50 (NC cell lines; Homo sapiens, TY82, Ty-82, 10–15, 14169, 10326, read-out: GI50 (geomean), range over all NC lines): 0.9 to 2.6 nM
